Test results: PubChem BioAssay AID504329 (Southern Research Specialized Biocontainment Screening …, 2011)

System: NS1A functional cell-based assay, percent inhibition
Assay: NS1A inhibition, H1N1 influenza, cell based functional assay (AID 504329)

With CN(C)c1ccnc2c[cH-]cc12.[Fe].c1ccc(-[c-]2[c-](-c3ccccc3)[c-](-c3ccccc3)[c-](-c3ccccc3)[c-]2-c2ccccc2)cc1 (configuration not stated) the IC50 was 9.29 µM.

C#CCOCCOCCOCCNc1nc(N2CCN(C(=O)CCCCCCCCCCNC(=O)[C@H]([C@@H](C)CC)n3cc(CCCCN=C(N)N)nn3)CC2)nc(N2CCN(C(=O)CCCCCCCCCCNC(=O)[C@H](CO)n3cc(CCCCCN)nn3)CC2)n1 was tested, and the IC50 was 16.1 µM.
